Legend:
Type in all cases: cell-based
[1] = test system: NCI-H1563; assay: Proliferation assay, Method 2 (Vybrant MTT); details: Homo sapiens, NCI-H1563 (non-small-cell lung carcinoma)
[2] = test system: NCI-H1838; assay: Proliferation assay, Method 2 (Vybrant MTT); details: Homo sapiens, NCI-H1838 (non-small-cell lung carcinoma)
[3] = test system: MDA-MB-453; assay: Proliferation assay, Method 2 (Vybrant MTT); details: Homo sapiens, MDA-MB-453 breast tumour cell line
[4] = test system: ZR-75-1; assay: Proliferation assay, Method 2 (Vybrant MTT); details: Homo sapiens, ZR-75-1 breast tumour cell line
[5] = test system: MDA-MB-231; assay: Proliferation assay, Method 2 (Vybrant MTT); details: Homo sapiens, MDA-MB-231 breast tumour cell line
[6] = test system: NCI-H69; assay: Proliferation assay (listed under Method 1 and Method 2); details: Homo sapiens; NCI-H69 (small-cell lung carcinoma); method 1 or 2
Protocol: (§1) This assay was used for the following cell lines: MCF 10A, SK-BR-3, MCF7, HCT 116, HT-29, SW480, Caco-2, MIAPaCa-2, DU145, PC3, HeLa, Caki2, 786-0, A-375, NCI-H460, NCI-H69, NCI-H1975, A549.
(§2) Cultivated human tumour cells (originally obtained from ATCC, HeLa-MaTu and HeLa-MaTu-ADR, originally obtained from Epo GmbH, Berlin) were plated in a density of from 1000 to 5000 cells/measurement point, depending on the growth rate of the cell line, in a 96-well multititre plate in 200 μl of growth medium (DMEM/HAMS F12, 2 mM L-glutamine, 10% foetal calf serum). After 24 hours, the cells of one plate (zero-point plate) were stained with crystal violet (see below), while the medium of the other plates was replaced by fresh culture medium (200 μl) with added test substances in various concentrations (0 μM, and in the range of 0.01-30 μM; the final concentration of the solvent dimethyl sulphoxide was 0.5%). The cells were incubated in the presence of the test substances for 4 days. Cell proliferation was determined by staining the cells with crystal violet: the cells were fixated by addition of 20 μl/measuring point of an 11% strength glutaraldehyde solution for 15 min at room temperature. After the fixated cells had been washed three times with water, the plates were dried at room temperature. The cells were stained by addition of 100 μl/measuring point of a 0.1% strength crystal violet solution (pH adjusted to pH 3 by addition of acetic acid). After the stained cells had been washed three times with water, the plates were dried at room temperature. The dye was dissolved by addition of 100 μl/measuring point of a 10% strength acetic acid solution. The absorption was determined photometrically at a wavelength of 595 nm. The change in percent of the cell growth was calculated by normalizing the measured values to the absorption values of the zero-point plate (=0%) and the absorption of the untreated (0 μM) cells (=100%). The measured data were normalized to 0% inhibition (cell proliferation without inhibitor) and 100% inhibition (zero-point plate). The IC50 values were determined using a 4-parameter fit with the aid of proprietary software.

[7] = test system: A549; assay: as above; details: Homo sapiens; A549 (non-small-cell lung carcinoma); method 1 or 2
Protocol: as §1, §2

[8] = test system: NCI-H1975; assay: as above; details: Homo sapiens; NCI-H1975 (non-small-cell lung carcinoma); method 1 or 2
Protocol: as §1, §2

[9] = test system: NCI-H460; assay: as above; details: Homo sapiens; NCI-H460 (non-small-cell lung carcinoma); method 1 or 2
Protocol: as §1, §2

[10] = test system: MCF 10A; assay: as above; details: Homo sapiens; MCF 10A breast cell line; method 1 or 2
Protocol: as §1, §2

[11] = test system: SK-MES-1; assay: Proliferation assay, Method 2 (Vybrant MTT); details: Homo sapiens, SK-MES-1 (squamous-cell carcinoma)
[12] = test system: MDA-MB-435s; assay: Proliferation assay, Method 2 (Vybrant MTT); details: Homo sapiens, MDA-MB-435s breast tumour cell line
[13] = test system: NCI-H661; assay: Proliferation assay, Method 2 (Vybrant MTT); details: Homo sapiens, NCI-H661 (non-small-cell lung carcinoma)
[14] = test system: NCI-H1437; assay: Proliferation assay, Method 2 (Vybrant MTT); details: Homo sapiens, NCI-H1437 (non-small-cell lung carcinoma)
[15] = test system: BT-474; assay: Proliferation assay, Method 2 (Vybrant MTT); details: Homo sapiens, BT-474 breast tumour cell line
[16] = test system: NCI-H2030; assay: Proliferation assay, Method 2 (Vybrant MTT); details: Homo sapiens, NCI-H2030 (non-small-cell lung carcinoma)
[17] = test system: BT-549; assay: Proliferation assay, Method 2 (Vybrant MTT); details: Homo sapiens, BT-549 breast tumour cell line
[18] = test system: NCI-H441; assay: Proliferation assay, Method 2 (Vybrant MTT); details: Homo sapiens, NCI-H441 (papillary lung carcinoma)
[19] = test system: NCI-H1703; assay: Proliferation assay, Method 2 (Vybrant MTT); details: Homo sapiens, NCI-H1703 (non-small-cell lung carcinoma)
[20] = test system: NCI-H810; assay: Proliferation assay, Method 2 (Vybrant MTT); details: Homo sapiens, NCI-H810 (non-small-cell lung carcinoma)
[21] = test system: NCI-H2170; assay: Proliferation assay, Method 2 (Vybrant MTT); details: Homo sapiens
[22] = test system: DU-4475; assay: Proliferation assay, Method 2 (Vybrant MTT); details: Homo sapiens, DU-4475 breast tumour cell line
[23] = test system: NCI-H2347; assay: Proliferation assay, Method 2 (Vybrant MTT); details: Homo sapiens, NCI-H2347 (non-small-cell lung carcinoma)
[24] = test system: ChaGo-K-1; assay: Proliferation assay, Method 2 (Vybrant MTT); details: Homo sapiens, ChaGo-K-1 (undifferentiated bronchial carcinoma)
[25] = test system: MDA-MB-468; assay: Proliferation assay, Method 2 (Vybrant MTT); details: Homo sapiens, MDA-MB-468 breast tumour cell line
[26] = test system: BT-20; assay: Proliferation assay, Method 2 (Vybrant MTT); details: Homo sapiens, BT-20 breast tumour cell line
[27] = test system: NCI-H2228; assay: Proliferation assay, Method 2 (Vybrant MTT); details: Homo sapiens, NCI-H2228 (non-small-cell lung carcinoma)
[28] = test system: NCI-H1581; assay: Proliferation assay, Method 2 (Vybrant MTT); details: Homo sapiens, NCI-H1581 (non-small-cell lung carcinoma)
[29] = test system: Hs 578T; assay: Proliferation assay, Method 2 (Vybrant MTT); details: Homo sapiens, Hs 578T breast tumour cell line
[30] = test system: NCI-H522; assay: Proliferation assay, Method 2 (Vybrant MTT); details: Homo sapiens, NCI-H522 (non-small-cell lung carcinoma)
[31] = test system: NCI-H1793; assay: Proliferation assay, Method 2 (Vybrant MTT); details: Homo sapiens, NCI-H1793 (non-small-cell lung carcinoma)
[32] = test system: NCI-H23; assay: Proliferation assay, Method 2 (Vybrant MTT); details: Homo sapiens, NCI-H23 (non-small-cell lung carcinoma)
[33] = test system: 786-O; assay: Proliferation assay, Method 1 (crystal violet); details: Homo sapiens, 786-0, 96 h, 786-O renal carcinoma cell line, 4 days
Protocol: as §1, §2

[34] = test system: MIAPaCa-2; assay: Proliferation assay, Method 1 (crystal violet); details: Homo sapiens, MIA PaCa-2, 96 h, MIAPaCa-2 pancreas carcinoma cell line, 4 days
Protocol: as §1, §2

[35] = test system: HCT 116; assay: Proliferation assay, Method 1 (crystal violet); details: Homo sapiens, 96 h, HCT 116 colon carcinoma cell line, 4 days
Protocol: as §1, §2

[36] = test system: SK-BR-3; assay: Proliferation assay, Method 1 (crystal violet); details: Homo sapiens, 96 h, SK-BR-3 breast tumour cell line, 4 days
Protocol: as §1, §2

[37] = test system: HeLa; assay: Proliferation assay, Method 1 (crystal violet); details: Homo sapiens, 96 h, HeLa cervix carcinoma cell line, 4 days
Protocol: as §1, §2

[38] = test system: PC3; assay: Proliferation assay, Method 1 (crystal violet); details: Homo sapiens, PC-3, 96 h, PC3 prostate carcinoma cell line, 4 days
Protocol: as §1, §2

[39] = test system: DU145; assay: Proliferation assay, Method 1 (crystal violet); details: Homo sapiens, DU-145, 96 h, DU145 prostate carcinoma cell line, 4 days
Protocol: as §1, §2

[40] = test system: Caco-2; assay: Proliferation assay, Method 1 (crystal violet); details: Homo sapiens, 96 h, Caco-2 colon carcinoma cell line, 4 days
Protocol: as §1, §2

[41] = test system: SW480; assay: Proliferation assay, Method 1 (crystal violet); details: Homo sapiens, 96 h, SW480 colon carcinoma cell line, 4 days
Protocol: as §1, §2

[42] = test system: MCF7; assay: Proliferation assay, Method 1 (crystal violet); details: Homo sapiens, 96 h, MCF7 breast tumour cell line, 4 days
Protocol: as §1, §2

[43] = test system: Caki2; assay: Proliferation assay, Method 1 (crystal violet); details: Homo sapiens, CAKI-2, 96 h, Caki2 renal carcinoma cell line, 4 days
Protocol: as §1, §2

[44] = test system: A-375; assay: Proliferation assay, Method 1 (crystal violet); details: Homo sapiens, 96 h, A-375 melanoma cell line, 4 days
Protocol: as §1, §2

[45] = test system: HT-29; assay: Proliferation assay, Method 1 (crystal violet); details: Homo sapiens, 96 h, HT-29 colon carcinoma cell line, 4 days
Protocol: as §1, §2

[46] = test system: NCI-H226; assay: Proliferation assay, Method 2 (Vybrant MTT); details: Homo sapiens, NCI-H226 (mesothelioma)
[47] = test system: KPL-1; assay: Proliferation assay, Method 2 (Vybrant MTT); details: Homo sapiens, KPL-1 breast tumour cell line
[48] = test system: NCI-H358; assay: Proliferation assay, Method 2 (Vybrant MTT); details: Homo sapiens, NCI-H358 (non-small-cell lung carcinoma)
[49] = test system: EVSA-T; assay: Proliferation assay, Method 2 (Vybrant MTT); details: Homo sapiens, EVSA-T breast tumour cell line
[50] = test system: NCI-H1048; assay: Proliferation assay, Method 2 (Vybrant MTT); details: Homo sapiens, NCI-H1048 (small-cell lung carcinoma)
[51] = test system: T-47D; assay: Proliferation assay, Method 2 (Vybrant MTT); details: Homo sapiens, T47D, T-47D breast tumour cell line

## C[C@@H](O)[C@@H](C)Oc1nc(Nc2ccc([S@](=N)(=O)C3CC3)cc2)ncc1C(F)(F)F [Compound A, (2R,3R)-3-{[2-{[4-(R-cyclopropylsulphonimidoyl)phenyl]amino}-5-(trifluoromethyl)pyrimidin-4-yl]oxy}butan-2-ol]
[1]
  IC50: 59.1 nM
[2]
  IC50: 15.9 nM
[3]
  IC50: 15.1 nM
[4]
  IC50: 32.5 nM
[5]
  IC50: 20.2 nM
[6]
  IC50: 27 nM
[7]
  IC50: 31 nM
[8]
  IC50: 24 nM
[9]
  IC50: 27 nM
[10]
  IC50: 20 nM
[11]
  IC50: 26.5 nM
[12]
  IC50: 36.4 nM
[13]
  IC50: 53.1 nM
[14]
  IC50: 69.9 nM
[15]
  IC50: 42.6 nM
[16]
  IC50: 17.7 nM
[17]
  IC50: 84.1 nM
[18]
  IC50: 10 nM
[19]
  IC50: 53.6 nM
[20]
  IC50: 9.01 nM
[21]
  IC50: 48.7 nM
[22]
  IC50: 37.3 nM
[23]
  IC50: 28 nM
[24]
  IC50: 69.4 nM
[25]
  IC50: 28.8 nM
[26]
  IC50: 38.1 nM
[27]
  IC50: 52.1 nM
[28]
  IC50: 53.8 nM
[29]
  IC50: 16.8 nM
[30]
  IC50: 65.4 nM
[31]
  IC50: 22.5 nM
[32]
  IC50: 45.4 nM
[33]
  IC50: 20 nM
[34]
  IC50: 21 nM
[35]
  IC50: 18 nM
[36]
  IC50: 13 nM
[37]
  IC50: 12 nM
[38]
  IC50: 25 nM
[39]
  IC50: 8 nM
[40]
  IC50: 16 nM
[41]
  IC50: 15 nM
[42]
  IC50: 15 nM
[43]
  IC50: 26 nM
[44]
  IC50: 14 nM
[45]
  IC50: 29 nM
[46]
  IC50: 54.6 nM
[47]
  IC50: 6.44 nM
[48]
  IC50: 19.4 nM
[49]
  IC50: 45 nM
[50]
  IC50: 25 nM
[51]
  IC50: 33.8 nM

— patent publication US20140200233A1, “USE OF MAD2L2 AS A STRATIFICATION MARKER IN THE TREATMENT OF BREAST TUMOURS WITH NOVEL PAN-CDK INHIBITORS” (BAYER INTELLECTUAL PROPERTY GMBH, priority 2011, published 2014)
